Experimental data: PMC11024016 (Pharmaceutical Research, 2024)

Assays:
[1] = Pharmacokinetics of unencapsulated topotecan in plasma, tumor and BM-ISF of ES-2 tumor bearing mice; format: in vivo, BALB/c nude mice; settings: for AUC(0-inf) / Cmax / MRT / half-life: BALB/c nude, mouse, iv
Description: (§1) Sucrose/histidine buffer and saline (Otsuka Pharmaceutical Factory, Tokushima, Japan) were used as the diluent for FF-10850 and TPT, respectively. After blood sample collection, mice were euthanized at the corresponding time points, and tumor and bone marrow tissues were collected. Plasma was obtained by centrifuging the blood samples at 800 × g for 15 min at 4 °C. Tumor tissues, placed on ice, were minced into fine pieces with scissors. Bone marrow tissues were harvested from the femur and tibia. After cutting the ends, the bones were placed in a microtube and centrifuged at 1,200 × g for 1 min at 4 °C. Unencapsulated topotecan was immediately separated from the plasma and tissue samples and processed.
For the separation of unencapsulated topotecan in plasma, plasma samples diluted with PBS were ultracentrifuged at 200,000 × g for 1 h at 4 °C to precipitate the liposomes. The supernatants were collected as samples for measuring unencapsulated topotecan in plasma. To separate unencapsulated topotecan in tumor tissues, the tissues were minced as described and homogenized in PBS containing topotecan-d6 as an internal standard (125 mg tissue/mL PBS), with zirconia balls using Micro Smash MS-100R (Tomy Seiko, Tokyo, Japan). The homogenate was then ultracentrifuged at 200,000 × g for 1 h at 4 °C, and the supernatants were collected as samples for measuring unencapsulated topotecan in the tumor tissue. For the separation of unencapsulated topotecan in BM-ISF, a bone marrow tissue suspension was prepared by adding PBS containing topoteacan-d6 to the tissue (25 mg tissue/mL PBS) and suspending it by pipetting. After removing cellular components from the suspension by centrifugation at 1,200 × g for 3 min at 4 °C, the supernatant was collected as the BM-ISF sample. These samples were ultracentrifuged at 200,000 × g for 1 h at 4 °C, and the supernatants were collected to measure unencapsulated topotecan in the BM-ISF.
(§2) To prepare the samples, methanol with 0.1% formic acid plus topotecan-d6 was added to plasma samples, while methanol with 0.1% formic acid was used for tumor and BM-ISF samples. The samples were thoroughly mixed and centrifuged at 11,300 × g for 3 min. The supernatants were added to an equal volume of water with 0.1% formic acid, and the mixture was injected into the liquid chromatographic–triple quadrupole mass spectrometric (LC–MS/MS) system. The ultra-performance liquid chromatography (UPLC) conditions for topotecan analysis were as follows: system, ACQUITY UPLC (Waters, Milford, MA); column, ACQUITY UPLC BEH C18 Column (1.7 µm, 2.1 mm × 50 mm, Waters); mobile phase A, 0.1% formic acid; mobile phase B, methanol with 0.1% formic acid, gradient (initial to 2.0 min, linear increase from 20 to 50% of B; 2.0 to 3.0 min, 95% B, and 3.0 to 4.0 min, 20% B); flow rate, 0.4 mL/min; column temperature, 40 °C. A Triple Quad 5500 (AB Sciex, Framingham, MA) mass spectrometer equipped with Analyst software (AB Sciex) and positive ion electrospray ionization in a multiple reaction monitoring (MRM) mode were used. Quantification was performed using MRM with the transitions of m/z at 422.0 → 377.1 for topotecan and 428.1 → 377.1 for topotecan-d6.
(§3) Pharmacokinetic parameters, including half-life (T1/2), initial concentration at t = 0 (C0), the area under the concentration versus time curves from 0 to infinity (AUCinf), clearance (CL), mean residence time (MRT), and the volume of distribution (Vd) of total and unencapsulated topotecan in plasma, tumor tissue, and BM-ISF were analyzed using noncompartmental analysis with Phoenix WinNonlin version 8.2 pharmacokinetic software (Certara, Princeton, NJ). The AUCs were calculated using the linear up/log down rule.

[2] = Maximum tolerated dose of TPT in mice; settings: mouse, in vivo, intravenous, 5 consecutive days, authors' previous study (data not shown)
[3] = Pharmacokinetics of total topotecan in plasma, tumor and BM-ISF of ES-2 tumor bearing mice; format: in vivo, BALB/c nude mice; settings: single i.v. 2 mg/kg
Description: as §1, §2, §3

[4] = tested on: Ser139-phosphorylated human H2AX (γhH2AX) in the tumor; experiment: DNA damage in tumor (γH2AX) of ES-2 tumor-bearing mice; format: in vivo; settings: TPT 2 mg/kg/day for 5 consecutive days
Description: Mice in the TPT group were euthanized at 3 and 24 h after each dosing and 3, 5, and 7 days after the last dosing (n = 3). Samples were also harvested at 0.5 h after the first and last TPT dose (n = 3). Mice in the vehicle control group were administered sucrose/histidine buffer intravenously and were euthanized at 3 h, 3, 7, and 11 days post-dosing (n = 2 or 3). The levels of Ser139-phosphorylated human H2AX (γhH2AX) and total hH2AX in the tumor, as well as Ser139-phosphorylated mouse H2AX (γmH2AX) and total mH2AX in mouse bone marrow, were quantified using a previously established method.

[5] = unencapsulated topotecan, BM-ISF, single i.v. 2 mg/kg, ES-2 tumor bearing mice
[6] = unencapsulated topotecan, plasma, single i.v. 2 mg/kg, ES-2 tumor bearing mice
[7] = unencapsulated topotecan, tumor, single i.v. 2 mg/kg, ES-2 tumor bearing mice
[8] = BALB/c nude, mouse, BM-ISF (bone marrow interstitial fluid), iv, BM-ISF, ES-2 tumor bearing mice
[9] = BALB/c nude, mouse, iv, plasma, ES-2 tumor bearing mice
[10] = BALB/c nude, mouse, iv, tumor, ES-2 tumor bearing mice

CC[C@@]1(O)C(=O)OCc2c1cc1n(c2=O)Cc2cc3c(CN(C)C)c(O)ccc3nc2-1 [TPT, Topotecan]
AUC(0-inf) [1, 5]: 822 ng·h/mL | Cmax [1, 5]: 1700 ng/mL | MRT [1, 5]: 36.4 min | half-life [1, 5]: 43.7 min | AUC(0-inf) [1, 6]: 97.3 ng·h/mL | Cmax [1, 6]: 198 ng/mL | MRT [1, 6]: 34.6 min | half-life [1, 6]: 26.3 min | Cmax [1, 7]: 646 ng/g | MRT [1, 7]: 62.4 min | half-life [1, 7]: 58.3 min | difference between total and unencapsulated topotecan AUCs ([1]; in plasma and each tissue): ≤ 1.5 fold | AUCinf ratio (Tumor/BM-ISF) ([1]; unencapsulated topotecan, single i.v. 2 mg/kg, ES-2 tumor bearing mice): 0.833 | AUCinf [1, 7]: 684 ng∙h/g tissue | MTD at 5 days [2]: 2 mg/kg/day | AUC(0-inf) [3, 8]: 862 ng·h/mL | Cmax [3, 8]: 1710 ng/mL | MRT [3, 8]: 39.5 min | half-life ([3]; BALB/c nude, mouse, iv, BM-ISF (bone marrow interstitial fluid), ES-2 tumor bearing mice): 41.4 min | AUC(0-inf) [3, 9]: 140 ng·h/mL | C0 [3, 9]: 406 ng/mL | MRT [3, 9]: 23.3 min | Vd [3, 9]: 5.87 L/kg | clearance [3, 9]: 238 mL/min/kg | half-life [3, 9]: 23.9 min | Cmax [3, 10]: 546 ng/g | MRT [3, 10]: 61.2 min | half-life [3, 10]: 55.7 min | AUCinf in BM-ISF relative to that in plasma [3]: 6 times | AUCinf ratio (Tumor/BM-ISF) ([3]; ES-2 tumor bearing mice): 0.675 | AUCinf ([3]; tumor, ES-2 tumor bearing mice): 582 ng∙h/g tissue | human γH2AX levels in the tumor (DNA damage) ([4]; FF-10850 single i.v. 2 mg/kg): comparable DNA damage | time γH2AX levels remained elevated in tumor after each dose [4]: at least 24 h
